From patent US20230265151A1, “GIP/GLP1 CO-AGONIST COMPOUNDS” (priority 2020, published 2023) come the findings set out here.

Molecules are shown by their SMILES. Read-outs that look alike come from different tables or passages of the source. *1 amine or outer side, *2 acyl side, *3 side chain or, on linkers, in order; H or OH if unused. Where a SMILES comes first, the peptide text is derived from it. Side-chain parts run from the residue outwards. [ ]: non-standard residue; d: D form. The star is where a group is joined. αMePhe(2-F) = C[C@](N)(Cc1ccccc1F)C(=O)O; γGlu = O=C(O)[C@H](CCC(=O)[*:2])N[*:1]; C14 diacid = O=C(O)CCCCCCCCCCCCC(=O)*; αMeY = C[C@](N)(Cc1ccc(O)cc1)C(=O)O; αMeL = CC(C)C[C@](C)(N)C(=O)O; Orn = NCCC[C@H](N)C(=O)O; AEEA = NCCOCCOCC(=O)O; Aib = CC(C)(N)C(=O)O

Common to all, as to type: cell-based
One test addresses hGLP-1R (Homo sapiens, UniProt P43220). The test is described as follows: Functional cAMP formation (HTRF) in HEK-293 clonal cells expressing hGLP-1R, 0.1% bovine casein, without or with 1.0% human serum albumin. More on the design: expressed in transfected cells. Conditions: for Emax: arithmetic mean; for EC50: cAMP, 0.1% bovine casein (no human serum albumin), geometric mean. A digest of the protocol:
(§1)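 Readings of the HTRF 665/620 nm ratio, which falls as cAMP rises, were converted to nM cAMP using a standard curve after 30 min peptide exposure at 37° C.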

For a further test, the target named is T1, hGCGR (Homo sapiens, UniProt P47871).
T1 construct: expressed in transfected cells
The test is described as follows: Functional cAMP formation (HTRF) in HEK-293 clonal cells expressing hGCGR, 0.1% bovine casein, without or with 1.0% human serum albumin. Conditions: cAMP. Summed up:
as §1
A general note: Cyclic AMP is a second messenger, typically raised through Gs and lowered through Gi signalling.

For the next test, the target named is T2, hGIPR (Homo sapiens, UniProt P48546).
T2 construct: expressed in transfected cells
T2 sequence (P48546 22-466): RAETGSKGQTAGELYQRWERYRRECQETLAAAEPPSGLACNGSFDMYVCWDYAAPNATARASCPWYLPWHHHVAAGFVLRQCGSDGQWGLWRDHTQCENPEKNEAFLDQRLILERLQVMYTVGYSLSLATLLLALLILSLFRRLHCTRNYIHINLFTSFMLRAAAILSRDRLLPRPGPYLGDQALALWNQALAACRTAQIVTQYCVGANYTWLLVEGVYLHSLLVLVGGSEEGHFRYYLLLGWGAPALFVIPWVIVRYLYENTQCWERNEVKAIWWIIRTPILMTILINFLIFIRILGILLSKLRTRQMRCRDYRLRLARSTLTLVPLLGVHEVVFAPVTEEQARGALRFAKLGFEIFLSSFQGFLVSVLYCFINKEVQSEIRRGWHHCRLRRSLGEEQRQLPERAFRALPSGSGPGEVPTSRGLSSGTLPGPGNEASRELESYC
The test is described as follows: Functional cAMP formation (HTRF) in HEK-293 clonal cells expressing hGIPR, 0.1% bovine casein, without or with 1.0% human serum albumin. Conditions: for EC50: cAMP, 0.1% bovine casein (no human serum albumin), geometric mean. A digest of the protocol: as §1

The mark [1] stands for this setting: HEK293, cAMP, 37° C., 0.1% bovine casein, percent of maximal response to GLP-1(7-36)NH2, read-out: hGLP-1R Emax, % ± SEM.
The mark [2] stands for this setting: 37° C., read-out: hGLP-1R EC50, nM (SEM, n).
Setting [3] is: 37° C., 0.1% bovine casein (no human serum albumin), geometric mean, read-out: hGCGR EC50, nM (SEM, n).
[4] abbreviates: HEK293, cAMP, 37° C., 0.1% bovine casein, percent of maximal response to GIP(1-42)NH2, arithmetic mean, read-out: hGIPR Emax, % ± SEM.
Where [5] appears, read: 37° C., read-out: hGIPR EC50, nM (SEM, n).

T1 sequence (P47871 26-477): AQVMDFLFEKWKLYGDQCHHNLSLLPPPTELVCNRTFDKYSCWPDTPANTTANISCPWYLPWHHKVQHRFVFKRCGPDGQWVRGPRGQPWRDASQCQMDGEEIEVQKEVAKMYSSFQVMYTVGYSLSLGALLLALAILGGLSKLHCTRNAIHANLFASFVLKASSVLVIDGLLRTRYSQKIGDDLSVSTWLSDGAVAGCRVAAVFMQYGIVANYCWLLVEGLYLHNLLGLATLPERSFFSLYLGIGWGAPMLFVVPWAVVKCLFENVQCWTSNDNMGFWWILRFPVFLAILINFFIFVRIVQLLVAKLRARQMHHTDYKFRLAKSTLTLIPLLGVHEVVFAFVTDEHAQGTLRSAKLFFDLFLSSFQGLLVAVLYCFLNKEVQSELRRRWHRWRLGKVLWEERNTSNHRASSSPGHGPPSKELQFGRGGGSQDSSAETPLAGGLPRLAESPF
Chain of hGLP-1R (P43220 24-463): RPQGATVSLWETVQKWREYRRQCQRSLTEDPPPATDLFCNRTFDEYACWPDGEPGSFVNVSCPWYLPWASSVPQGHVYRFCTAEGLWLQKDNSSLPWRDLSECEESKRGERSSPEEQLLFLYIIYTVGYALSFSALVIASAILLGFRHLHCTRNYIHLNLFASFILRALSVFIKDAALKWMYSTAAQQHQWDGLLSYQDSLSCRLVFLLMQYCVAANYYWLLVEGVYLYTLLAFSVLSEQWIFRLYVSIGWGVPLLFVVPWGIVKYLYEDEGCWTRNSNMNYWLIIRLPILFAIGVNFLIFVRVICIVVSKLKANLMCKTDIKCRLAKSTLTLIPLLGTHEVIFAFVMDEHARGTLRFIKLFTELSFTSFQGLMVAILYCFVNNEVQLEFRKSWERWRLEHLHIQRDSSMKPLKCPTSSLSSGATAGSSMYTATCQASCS

Regarding `CC[C@H](C)[C@H](NC(=O)[C@H](CC(C)C)NC(=O)[C@](C)(Cc1ccc(O)cc1)NC(=O)[C@@H](CCC(=O)O)NC(=O)[C@@H](NC(=O)[C@H](Cc1ccccc1)NC(=O)[C@H](CCCCNC(=O)COCCOCCNC(=O)COCCOCCNC(=O)CCCCCCCCCCCCC(=O)O)NC(=O)C(C)(C)NC(=O)[C@H](CCC(N)=O)NC(=O)[C@H](C)NC(=O)[C@H](CCCCNC(=O)COCCOCCNC(=O)COCCOCCNC(=O)CCCCCCCCCCCCC(=O)O)NC(=O)[C@H](CCCN)NC(=O)[C@H](CC(=O)O)NC(=O)[C@H](CC(C)C)NC(=O)[C@](C)(CC(C)C)NC(=O)[C@@H](NC(=O)C(C)(C)NC(=O)[C@H](Cc1ccncc1)NC(=O)[C@H](CC(=O)O)NC(=O)[C@H](CO)NC(=O)[C@@H](NC(=O)[C@](C)(Cc1ccccc1F)NC(=O)[C@@H](NC(=O)CNC(=O)[C@H](CCC(=O)O)NC(=O)C(C)(C)NC(=O)[C@@H](N)Cc1ccc(O)cc1)[C@@H](C)O)[C@@H](C)O)[C@@H](C)CC)[C@@H](C)CC)C(=O)N[C@@H](CCC(=O)O)C(=O)NCC(=O)NCC(=O)N1CCC[C@H]1C(=O)N[C@@H](CO)C(=O)N[C@@H](CO)C(=O)NCC(=O)N[C@@H](C)C(=O)N1CCC[C@H]1C(=O)N1CCC[C@H]1C(=O)N1CCC[C@H]1C(=O)N[C@@H](CO)C(N)=O` [Example 384], the Emax at hGLP-1R (setting [1]) was 98.2%; on hGIPR (HEK293, cAMP, 37° C., 0.1% bovine casein and 1.0% human serum albumin, percent of maximal response to GIP(1-42)NH2, read-out: hGIPR Emax, % ± SEM) it was 83.5%; at hGIPR (setting [4]) it was 94.5%. The EC50 was 0.308 nM at hGLP-1R (setting [2]); above 9950 nM on hGCGR (setting [3]); above 9950 nM at hGCGR (37° C., 0.1% bovine casein and 1.0% human serum albumin, geometric mean (SEM, n), read-out: hGCGR EC50, nM (SEM, n)); 0.0124 nM at hGIPR (setting [5]).
`CC[C@H](C)[C@H](NC(=O)[C@H](CC(C)C)NC(=O)[C@](C)(Cc1ccc(O)cc1)NC(=O)[C@@H](CCC(=O)O)NC(=O)[C@@H](NC(=O)[C@H](Cc1ccccc1)NC(=O)[C@H](CCC(=O)O)NC(=O)C(C)(C)NC(=O)[C@H](CCC(N)=O)NC(=O)[C@H](C)NC(=O)[C@H](CCCCNC(=O)COCCOCCNC(=O)CC[C@H](NC(=O)CCCCCCCCCCCCC(=O)O)C(=O)O)NC(=O)[C@H](CCCN)NC(=O)[C@H](CC(=O)O)NC(=O)[C@H](CC(C)C)NC(=O)[C@](C)(CC(C)C)NC(=O)[C@@H](NC(=O)C(C)(C)NC(=O)[C@H](Cc1ccc(O)cc1)NC(=O)[C@H](CC(=O)O)NC(=O)[C@H](CO)NC(=O)[C@@H](NC(=O)[C@](C)(Cc1ccccc1F)NC(=O)[C@@H](NC(=O)CNC(=O)[C@H](CCC(=O)O)NC(=O)C(C)(C)NC(=O)[C@@H](N)Cc1ccc(O)cc1)[C@@H](C)O)[C@@H](C)O)[C@@H](C)CC)[C@@H](C)CC)C(=O)N[C@@H](CCCCNC(=O)COCCOCCNC(=O)CC[C@H](NC(=O)CCCCCCCCCCCCC(=O)O)C(=O)O)C(=O)NCC(=O)NCC(=O)N1CCC[C@H]1C(=O)N[C@@H](CO)C(=O)N[C@@H](CO)C(=O)NCC(=O)N[C@@H](C)C(=O)N1CCC[C@H]1C(=O)N1CCC[C@H]1C(=O)N1CCC[C@H]1C(=O)N[C@@H](CO)C(N)=O` [Example 367]: the figures for the Emax at hGLP-1R (setting [1]) and on hGIPR (setting [4]) were 93.9% and 112%, respectively. Moreover, the figures for the EC50 on hGLP-1R (setting [2]), at hGCGR (setting [3]) and on hGIPR (setting [5]) were 0.366 nM, above 9950 nM and 0.019 nM, respectively.
Regarding `CC[C@H](C)[C@H](NC(=O)[C@H](CCCN)NC(=O)[C@H](CC(=O)O)NC(=O)[C@H](CC(C)C)NC(=O)[C@](C)(CC(C)C)NC(=O)[C@@H](NC(=O)[C@H](CO)NC(=O)[C@H](CCCCNC(=O)COCCOCCNC(=O)COCCOCCNC(=O)CC[C@H](NC(=O)CCCCCCCCCCCCC(=O)O)C(=O)O)NC(=O)[C@H](CC(=O)O)NC(=O)[C@H](CO)NC(=O)[C@@H](NC(=O)[C@](C)(Cc1ccccc1F)NC(=O)[C@@H](NC(=O)CNC(=O)[C@H](CCC(=O)O)NC(=O)C(C)(C)NC(=O)[C@@H](N)Cc1ccc(O)cc1)[C@@H](C)O)[C@@H](C)O)[C@@H](C)CC)C(=O)N[C@@H](C)C(=O)N[C@@H](CCC(N)=O)C(=O)NC(C)(C)C(=O)N[C@@H](CCC(=O)O)C(=O)N[C@@H](Cc1ccccc1)C(=O)N[C@H](C(=O)N[C@H](CCC(=O)O)C(=O)N[C@@](C)(Cc1ccc(O)cc1)C(=O)N[C@@H](CC(C)C)C(=O)N[C@H](C(=O)N[C@@H](CCC(=O)O)C(=O)NCC(=O)NCC(=O)N[C@@H](CCCCNC(=O)COCCOCCNC(=O)COCCOCCNC(=O)CC[C@H](NC(=O)CCCCCCCCCCCCC(=O)O)C(=O)O)C(=O)N[C@@H](CO)C(=O)N[C@@H](CO)C(=O)NCC(=O)N[C@@H](C)C(=O)N1CCC[C@H]1C(=O)N1CCC[C@H]1C(=O)N1CCC[C@H]1C(=O)N[C@@H](CO)C(N)=O)[C@@H](C)CC)[C@@H](C)CC` [Example 108] (H-Y[Aib]EGT[αMePhe(2-F)]TSDK([AEEA-AEEA-γGlu-C14 diacid])SI[αMeL]LD[Orn]IAQ[Aib]EFI[dE][αMeY]LIEGGK([AEEA-AEEA-γGlu-C14 diacid])SSGAPPPS-NH2; N-terminus assumed), the Emax on hGLP-1R (HEK293, percent of maximal response to GLP-1(7-36)NH2, 37° C., 0.1% bovine casein, read-out: hGLP-1R Emax, % ± SEM) was determined as 97.6%; at hGIPR (HEK293, percent of maximal response to GIP(1-42)NH2, 37° C., 0.1% bovine casein, arithmetic mean, read-out: hGIPR Emax, % ± SEM), 85.2%. Moreover, the EC50 at hGCGR (incubated at 37° C., 0.1% bovine casein (no human serum albumin), geometric mean, read-out: hGCGR EC50, nM (SEM, n)) was above 9950 nM; at hGIPR (incubated at 37° C., read-out: hGIPR EC50, nM (SEM, n)), 0.0249 nM.
As to `CC[C@H](C)[C@H](NC(=O)[C@H](CC(C)C)NC(=O)[C@](C)(Cc1ccc(O)cc1)NC(=O)[C@H](CCCCNC(=O)COCCOCCNC(=O)COCCOCCNC(=O)CC[C@H](NC(=O)CCCCCCCCCCOc1ccc(C(=O)O)cc1)C(=O)O)NC(=O)[C@@H](NC(=O)[C@H](Cc1ccccc1)NC(=O)[C@H](CCCN)NC(=O)C(C)(C)NC(=O)[C@H](CCC(N)=O)NC(=O)[C@H](C)NC(=O)[C@H](CCC(N)=O)NC(=O)[C@H](CCCN)NC(=O)[C@H](CC(=O)O)NC(=O)[C@H](CC(C)C)NC(=O)[C@](C)(CC(C)C)NC(=O)[C@@H](NC(=O)C(C)(C)NC(=O)[C@H](Cc1ccncc1)NC(=O)[C@H](CC(=O)O)NC(=O)[C@H](CO)NC(=O)[C@@H](NC(=O)[C@](C)(Cc1ccccc1F)NC(=O)[C@@H](NC(=O)CNC(=O)[C@H](CCC(=O)O)NC(=O)C(C)(C)NC(=O)[C@@H](N)Cc1ccc(O)cc1)[C@@H](C)O)[C@@H](C)O)[C@@H](C)CC)[C@@H](C)CC)C(=O)N[C@@H](CCCCNC(=O)COCCOCCNC(=O)COCCOCCNC(=O)CC[C@H](NC(=O)CCCCCCCCCCOc1ccc(C(=O)O)cc1)C(=O)O)C(=O)NCC(=O)NCC(=O)N1CCC[C@H]1C(=O)N[C@@H](CO)C(=O)N[C@@H](CO)C(=O)NCC(=O)N[C@@H](C)C(=O)N1CCC[C@H]1C(=O)N1CCC[C@H]1C(=O)N1CCC[C@H]1C(=O)N[C@@H](CO)C(N)=O` [Example 442], the Emax at hGLP-1R (HEK293, read-out: hGLP-1R Emax, % ± SEM, cAMP, 37° C., 0.1% bovine casein, percent of maximal response to GLP-1(7-36)NH2) is 113%; at hGIPR (HEK293, read-out: hGIPR Emax, % ± SEM, cAMP, 37° C., 0.1% bovine casein and 1.0% human serum albumin, percent of maximal response to GIP(1-42)NH2), 92.1%. For the same compound, the EC50 is 0.285 nM on hGLP-1R (hGLP-1R EC50, nM (SEM, n), 37° C.); above 9950 nM on hGCGR (hGCGR EC50, nM (SEM, n), 37° C., 0.1% bovine casein (no human serum albumin), geometric mean); above 9950 nM at hGCGR (hGCGR EC50, nM (SEM, n), 37° C., 0.1% bovine casein and 1.0% human serum albumin, geometric mean (SEM, n)); 0.0129 nM at hGIPR (hGIPR EC50, nM (SEM, n), 37° C.).

In general, Emax refers to the size of the effect at its maximum, as opposed to the concentration needed. For orientation: EC50 means the concentration giving half of the maximal effect.
